# “Also recorded” adds a separate entry of the source. Structures can show the parent of a compound that is named as a salt. Where two headings read alike, the source gives them in different places.
# What was measured:
# neutrophil margination = settings: in vivo; read-out: IC50, neutrophil margination induced by IL-8; cited from earlier work
# neutrophil chemotaxis = settings: in vitro; read-out: IC50, neutrophil chemotaxis in response to IL-8; cited from earlier work
# MCT2 = MCT2 (Homo sapiens, UniProt O60669); settings: cited from earlier work
# [1] = molecular target: sodium/D-glucose cotransporter; settings: cited from earlier work
# MCT1 = MCT1 (Homo sapiens, UniProt P53985); settings: cited from earlier work
# anandamide levels = settings: rat cerebellum; cited from earlier work
# anandamide uptake = settings: cited from earlier work
# Survivin promoter = settings: HeLa-SURP-luc and CHO-SV40-luc cells; read-out: IC50, inhibition of Survivin promoter activity; cited from earlier work
# carcinoma cell lines [2] = assay: Correlation of EMT signatures with PRISM compound AUCs; settings: PRISM drug testing cohort
# Description: (§1) FIG. 2A-2B—Investigation of the EMT signature and drug sensitivity data. FIG. 2A illustrates the top and bottom correlations between the PRISM compound AUCs (measure of drug sensitivity with a higher value indicating resistance) across three independent EMT down (FIG. 2A) and up (FIG. 2A continued) signatures (Byers, Groger, and Taube). FIG. 2B illustrates the top and bottom correlations between the CTD^2 drug testing cohort compound AUCs with the down (FIG. 2B) and up (FIG. 2B continued) EMT signatures (Byers, Groger, and Taube).
# (§2) Applicants analyzed correlations between the EMT signatures and drug sensitivities (FIG. 2).
# (§3) Data Curation. All analyses were performed using publicly available data downloaded from the Dependency Map web portal, corresponding to the 22Q2 release. Drug testing data was from the 19Q4 release of PRISM and the most recent release (2015) of CTD ([…]). EMT gene sets were taken from the supplementals of the Byers (2013), Groger (2012), and Taube (2010) EMT related publications. Gene sets were broken down into up (mesenchymal) and down (epithelial) sub-gene sets. If up or down is not labeled in a figure, the composite gene set (union of the up and down lists) was used for scoring. […]
# (§4) Computational Methods. […] EMT scores were generated using the GSVA package (v1.38.2) and Pearson correlations were calculated using the base cor function. […]
# [3] = tested on: KP4, Panc1, Miapaca2 and 8988T (mesenchymal) vs Panc0403, Panc0504 and 8988S (epithelial) cancer cell lines; assay: Cell growth by cell-titer-glo assay, mesenchymal vs epithelial cancer cell lines; assay type: cell-based; settings: FIG. 8
# Protocol: Validation studies were performed for two mesenchymal selective dependencies.
# [4] = tested on: tumor cells having a mesenchymal state; assay: EMT signature and drug sensitivity data (PRISM and CTD^2, FIG. 2); settings: mesenchymal vs epithelial state
# Protocol: Data Curation. All analyses were performed using publicly available data downloaded from the Dependency Map web portal, corresponding to the 22Q2 release. Drug testing data was from the 19Q4 release of PRISM and the most recent release (2015) of CTD (Gröger, C. J., et al., 2012). EMT gene sets were taken from the supplementals of the Byers (2013), Groger (2012), and Taube (2010) EMT related publications. Gene sets were broken down into up (mesenchymal) and down (epithelial) sub-gene sets. If up or down is not labeled in a figure, the composite gene set (union of the up and down lists) was used for scoring. Only carcinoma coded cell lines were used in analyses. These carcinoma lines were then subset further, when indicated, based on KRAS mutation or pancreas lineage.
# Computational Methods. Analyses were performed using the statistical programming language R (v4.0.3, macOS 12.5.1, platform: x86_64-apple-darwin17.0 (64-bit)). EMT scores were generated using the GSVA package (v1.38.2) and Pearson correlations were calculated using the base cor function. All plots were generated using ggplot2 (v3.3.6). Data manipulation was performed using the dplyr (v1.0.8) and reshape2 (v.1.4.4) packages.
# SV40 promoter = settings: cited from earlier work
# [5] = tested on: various cancer cell lines; settings: read-out: IC50, apoptosis induction; cited from earlier work
# normal human fibroblasts = settings: read-out: IC50, apoptosis induction; cited from earlier work
# carcinoma cell lines [6] = assay: Correlation of EMT signatures with CTD^2 compound AUCs; settings: CTD^2 drug testing cohort
# Description: as §1, §2, §3, §4
# platelet aggregation = settings: cited from earlier work
# PAR2 = PAR2 (Homo sapiens, UniProt P55085); settings: cited from earlier work
# PAR4 = PAR4 (Homo sapiens, UniProt Q96RI0); settings: cited from earlier work
# [7] = molecular target: proteinase-activated receptor 1 (PAR1) (Homo sapiens, UniProt P25116); settings: read-out: IC50, blocking binding of haTRAP; cited from earlier work
# Glut1 = Glut1 (Homo sapiens, UniProt P11166); settings: cited from earlier work
# [8] = cited from earlier work
# variety of cell types = settings: cited from earlier work
# Sequence of MCT1 (P53985 whole entry): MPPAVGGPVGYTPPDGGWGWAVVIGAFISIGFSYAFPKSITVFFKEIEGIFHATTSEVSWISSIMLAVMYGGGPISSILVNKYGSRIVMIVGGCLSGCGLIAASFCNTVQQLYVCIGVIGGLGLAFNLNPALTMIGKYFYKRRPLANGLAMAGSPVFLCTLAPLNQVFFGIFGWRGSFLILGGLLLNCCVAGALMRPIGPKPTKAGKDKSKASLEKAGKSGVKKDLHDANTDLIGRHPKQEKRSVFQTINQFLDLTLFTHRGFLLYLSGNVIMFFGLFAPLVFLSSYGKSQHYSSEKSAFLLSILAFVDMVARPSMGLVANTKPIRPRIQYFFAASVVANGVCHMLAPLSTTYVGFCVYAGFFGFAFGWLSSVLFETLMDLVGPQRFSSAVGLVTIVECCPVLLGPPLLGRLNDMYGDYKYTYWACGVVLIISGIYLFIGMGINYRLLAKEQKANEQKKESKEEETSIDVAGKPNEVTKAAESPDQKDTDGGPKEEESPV
# Sequence of PAR4 (Q96RI0 18-385): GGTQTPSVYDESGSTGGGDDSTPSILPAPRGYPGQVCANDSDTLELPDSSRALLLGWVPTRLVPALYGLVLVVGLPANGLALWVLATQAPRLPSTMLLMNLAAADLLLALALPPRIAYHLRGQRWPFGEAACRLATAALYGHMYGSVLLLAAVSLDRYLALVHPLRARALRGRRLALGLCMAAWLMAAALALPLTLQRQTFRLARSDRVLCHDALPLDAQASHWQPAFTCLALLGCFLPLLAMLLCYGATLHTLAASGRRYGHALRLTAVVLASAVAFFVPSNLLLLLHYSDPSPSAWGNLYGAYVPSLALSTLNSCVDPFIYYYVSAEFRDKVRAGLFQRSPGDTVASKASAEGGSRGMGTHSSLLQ
# Sequence of MCT2 (O60669 whole entry, species assumed): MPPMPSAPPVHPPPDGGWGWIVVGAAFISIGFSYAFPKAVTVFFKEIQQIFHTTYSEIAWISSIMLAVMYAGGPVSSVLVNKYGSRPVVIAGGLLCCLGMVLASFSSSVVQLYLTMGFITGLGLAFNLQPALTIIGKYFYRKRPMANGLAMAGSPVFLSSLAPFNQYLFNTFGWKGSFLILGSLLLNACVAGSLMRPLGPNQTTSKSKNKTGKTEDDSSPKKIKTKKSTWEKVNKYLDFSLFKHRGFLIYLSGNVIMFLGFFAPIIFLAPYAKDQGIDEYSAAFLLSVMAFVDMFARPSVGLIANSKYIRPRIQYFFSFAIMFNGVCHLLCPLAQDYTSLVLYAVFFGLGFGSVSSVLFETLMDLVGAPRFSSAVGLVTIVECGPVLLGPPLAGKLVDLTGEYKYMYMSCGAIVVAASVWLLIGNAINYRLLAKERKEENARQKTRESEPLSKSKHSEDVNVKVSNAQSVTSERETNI
# Sequence of Glut1 (P11166 whole entry, species assumed): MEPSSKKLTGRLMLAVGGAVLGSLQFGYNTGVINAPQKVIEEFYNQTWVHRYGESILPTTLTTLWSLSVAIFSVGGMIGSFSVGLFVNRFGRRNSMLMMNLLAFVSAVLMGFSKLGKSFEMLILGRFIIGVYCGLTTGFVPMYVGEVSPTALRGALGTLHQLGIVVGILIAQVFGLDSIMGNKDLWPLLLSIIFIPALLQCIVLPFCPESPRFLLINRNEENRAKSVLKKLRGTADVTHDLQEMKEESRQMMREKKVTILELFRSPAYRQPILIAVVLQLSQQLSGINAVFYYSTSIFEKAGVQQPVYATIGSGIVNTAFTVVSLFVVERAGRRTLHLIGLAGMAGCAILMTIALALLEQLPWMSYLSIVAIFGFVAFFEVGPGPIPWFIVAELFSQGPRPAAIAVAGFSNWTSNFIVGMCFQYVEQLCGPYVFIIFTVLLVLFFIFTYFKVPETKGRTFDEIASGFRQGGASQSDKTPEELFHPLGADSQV
# Sequence of PAR2 (P55085 26-397): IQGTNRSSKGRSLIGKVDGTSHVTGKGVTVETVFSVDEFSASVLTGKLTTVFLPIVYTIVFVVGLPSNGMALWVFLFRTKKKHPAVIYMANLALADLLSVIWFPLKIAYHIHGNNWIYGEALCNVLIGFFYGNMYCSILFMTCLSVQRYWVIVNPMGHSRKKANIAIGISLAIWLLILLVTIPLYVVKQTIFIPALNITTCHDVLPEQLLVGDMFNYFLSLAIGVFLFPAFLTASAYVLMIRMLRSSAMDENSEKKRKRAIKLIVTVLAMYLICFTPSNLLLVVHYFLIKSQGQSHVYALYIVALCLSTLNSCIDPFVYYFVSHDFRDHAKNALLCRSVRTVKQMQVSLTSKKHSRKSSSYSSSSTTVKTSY
# Sequence of proteinase-activated receptor 1 (PAR1) (P25116 22-425, species assumed): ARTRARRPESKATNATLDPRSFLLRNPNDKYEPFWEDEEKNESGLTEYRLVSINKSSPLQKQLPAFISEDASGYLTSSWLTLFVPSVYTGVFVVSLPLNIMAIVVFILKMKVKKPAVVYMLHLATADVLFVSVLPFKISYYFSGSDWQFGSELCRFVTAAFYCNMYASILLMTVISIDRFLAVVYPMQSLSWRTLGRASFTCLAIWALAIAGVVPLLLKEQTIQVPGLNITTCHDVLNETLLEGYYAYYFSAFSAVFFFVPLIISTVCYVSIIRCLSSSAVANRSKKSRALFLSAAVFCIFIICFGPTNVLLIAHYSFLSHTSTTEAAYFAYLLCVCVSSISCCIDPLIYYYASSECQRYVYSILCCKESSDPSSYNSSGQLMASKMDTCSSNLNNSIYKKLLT
compound,measurement,setting,value
"O=C(Nc1ccc([N+](=O)[O-])cc1O)Nc1ccccc1Br [SB 225002, 1-(2-bromophenyl)-3-(2-hydroxy-4-nitrophenyl)urea]",IC50,neutrophil margination,30 nM
same,IC50,neutrophil chemotaxis,20 nM
"O=C(CCc1ccc(O)cc1)c1c(O)cc(O)cc1O [Phloretin, 3-(4-hydroxyphenyl)-1-(2,4,6-trihydroxyphenyl)propan-1-one]",IC50,MCT2,14000 nM
same,Ki,[1],86000 nM
same,IC50,MCT1,28000 nM
"CN(C)C(=O)n1nnnc1Cc1ccc(-c2ccccc2)cc1 [LY2183240, N,N-dimethyl-5-[(4-biphenyl)methyl]tetrazole-1-carboxamide]","ED50, increase of anandamide levels",anandamide levels,1.37 mg/kg
same,IC50,"anandamide uptake; read-out: IC50, anandamide uptake",270000 nM
same,Ki,"anandamide uptake; read-out: Ki, anandamide uptake",540000 nM
"COCCn1c2c([n+](Cc3cnccn3)c1C)C(=O)c1ccccc1C2=O [YM-155, 1-(2-methoxyethyl)-2-methyl-3-(pyrazin-2-ylmethyl)benzo[f]benzimidazol-3-ium-4,9-dione;bromide]",IC50,Survivin promoter,0.54 nM
same,correlation of compound AUC with composite EMT signatures,carcinoma cell lines [2],top positively correlated compound
same,"selectivity of growth inhibition, mesenchymal vs epithelial cancer cells",[3],selective for inhibiting growth of mesenchymal cancer cells; also recorded: selectively targeted cancer cells that have undergone an epithelial-to-mesenchymal transition
same,selective efficacy / lethality in the mesenchymal cell state,[4],potent selectivity against the mesenchymal cell state
same,inhibition of SV40 promoter activity,SV40 promoter,does not significantly inhibit
"OCCNCCCOc1cccc(Cl)c1Cl [2,3-DCPE, 2-[3-(2,3-dichlorophenoxy)propylamino]ethanol;hydrochloride]",IC50,[5],890 to 2690 nM
same,IC50,normal human fibroblasts,12600 nM
"O=C(Nc1ccc([N+](=O)[O-])cc1Cl)c1cc(Cl)ccc1O [niclosamide, 5-chloro-N-(2-chloro-4-nitrophenyl)-2-hydroxybenzamide]",correlation of compound AUC with composite EMT signatures,carcinoma cell lines [6],top positively correlated compound
same,selective efficacy / lethality in the mesenchymal cell state,[4],selective efficacy in mesenchymal cancer cells
"CC(C)c1ccc(Cn2ccc3c4c(N)nc(NC5CC5)nc4ccc32)cc1 [SCH 79797, 3-N-cyclopropyl-7-[(4-propan-2-ylphenyl)methyl]pyrrolo[3,2-f]quinazoline-1,3-diamine]",IC50,"platelet aggregation; inducer haTRAP, read-out: IC50, platelet aggregation induced by haTRAP",300 nM
same,IC50,"platelet aggregation; inducer α-thrombin, read-out: IC50, platelet aggregation induced by α-thrombin",3000 nM
same,activity against PAR2,PAR2,no activity
same,activity against PAR4,PAR4,no activity
same,IC50,[7],70 nM
"CC(C)(C)c1ccc(S(=O)(=O)NCc2ccc(C(=O)Nc3cccnc3)cc2)cc1 [STF-31, 4-[[[[4-(1,1-dimethylethyl)phenyl]sulfonyl]amino]methyl]-N-3-pyridinyl-benzamide]",IC50,Glut1,~1000 nM
"CC[C@H]1/C=C/C=C/C[C@@H](C)[C@H](O)[C@@](C)(O)C(=O)[C@@H](C)[C@H](O)[C@@H](C)C(=O)[C@@H](C)[C@H](O)[C@@H](C)/C=C/C(=O)O[C@@H]2[C@H](C)[C@H](CC1)O[C@]1(CC[C@H](C)[C@H](C[C@@H](C)O)O1)[C@H]2C [Oligomycin A, (1R,4E,5′S,6S,6′S,7R,8S,10R,11R,12S,14R,15S,16R,18E,20E,22R,25S,27R,28S,29R)-22-ethyl-7,11,14,15-tetrahydroxy-6′-[(2R)-2-hydroxypropyl]-5′,6,8,10,12,14,16,28,29-nonamethyl-3′,4′,5′,6′-tetrahydro-3H,9H,13H-spiro[2,26-dioxabicyclo[23.3.1]nonacosa-4,18,20-triene-27,2′-pyran]-3,9,13-trione]",solubility in water and other biocompatible solvents,[8],poor solubility
same,GI50,variety of cell types,270 nM

# Source: US20260125683A1, “TREATMENT OF CANCERS HAVING A DRUG-RESISTANT MESENCHYMAL CELL STATE” (DANA-FARBER CANCER INSTITUTE, INC., priority 2023, published 2026)
